Experimental data taken from the NIST ThermoML archive (doi:10.1021/je049893r).
± gives the expanded uncertainty stated by the source.

Conditions: Liquid, Vibrating tube method

CCCOCC(C)O (centres undefined) [1-propoxy-2-propanol]
mass density [kg/m3]
Conditions | 100 kPa | 1000 kPa | 2500 kPa | 5000 kPa | 7500 kPa | 10000 kPa | 15000 kPa | 20000 kPa | 25000 kPa
283.15 K | 895.1 ± 0.7 | 895.7 ± 0.7 | 896.7 ± 0.7 | 898.5 ± 0.7 | 900.1 ± 0.7 | 901.8 ± 0.7 | 905 ± 0.7 | 908.1 ± 0.7 | 911.1 ± 0.7
293.15 K | 886 ± 0.7 | 886.6 ± 0.7 | 887.7 ± 0.7 | 889.6 ± 0.7 | 891.3 ± 0.7 | 893.1 ± 0.7 | 896.5 ± 0.7 | 899.8 ± 0.7 | 902.9 ± 0.7
303.15 K | 876.4 ± 0.7 | 877.2 ± 0.7 | 878.4 ± 0.7 | 880.3 ± 0.7 | 882.2 ± 0.7 | 884 ± 0.7 | 887.6 ± 0.7 | 891.1 ± 0.7 | 894.4 ± 0.7
313.15 K | 866.9 ± 0.7 | 867.6 ± 0.7 | 868.9 ± 0.7 | 871 ± 0.7 | 873 ± 0.7 | 875 ± 0.7 | 878.8 ± 0.7 | 882.4 ± 0.7 | 885.9 ± 0.7
323.15 K | 857.2 ± 0.7 | 858 ± 0.7 | 859.3 ± 0.7 | 861.4 ± 0.7 | 863.5 ± 0.7 | 865.6 ± 0.7 | 869.6 ± 0.7 | 873.5 ± 0.7 | 877.2 ± 0.7
333.15 K | 847.1 ± 0.7 | 847.9 ± 0.7 | 849.3 ± 0.7 | 851.7 ± 0.7 | 853.9 ± 0.7 | 856.1 ± 0.7 | 860.3 ± 0.7 | 864.3 ± 0.7 | 868.1 ± 0.7
343.15 K | 837.5 ± 0.7 | 838.4 ± 0.7 | 840 ± 0.7 | 842.4 ± 0.7 | 844.9 ± 0.7 | 847.2 ± 0.7 | 851.8 ± 0.7 | 856 ± 0.7 | 860.1 ± 0.7
353.15 K | 827.3 ± 0.6 | 828.3 ± 0.6 | 829.9 ± 0.7 | 832.6 ± 0.7 | 835.2 ± 0.7 | 837.7 ± 0.7 | 842.5 ± 0.7 | 847 ± 0.7 | 851.3 ± 0.7

CCCCOCCOCCO [3,6-dioxa-1-decanol]
mass density [kg/m3]
Conditions | 100 kPa | 1000 kPa | 2500 kPa | 5000 kPa | 7500 kPa | 10000 kPa | 15000 kPa | 20000 kPa | 25000 kPa
283.15 K | 960.5 ± 0.5 | 961 ± 0.5 | 961.9 ± 0.5 | 963.4 ± 0.5 | 964.9 ± 0.5 | 966.3 ± 0.5 | 969.1 ± 0.5 | 971.8 ± 0.5 | 974.4 ± 0.5
293.15 K | 952.2 ± 0.5 | 952.7 ± 0.5 | 953.7 ± 0.5 | 955.2 ± 0.5 | 956.7 ± 0.5 | 958.2 ± 0.5 | 961.1 ± 0.5 | 963.9 ± 0.5 | 966.7 ± 0.5
303.15 K | 943.8 ± 0.5 | 944.3 ± 0.5 | 945.3 ± 0.5 | 946.9 ± 0.5 | 948.5 ± 0.5 | 950.1 ± 0.5 | 953.1 ± 0.5 | 956.1 ± 0.5 | 959 ± 0.5
313.15 K | 935.3 ± 0.5 | 935.9 ± 0.5 | 936.9 ± 0.5 | 938.6 ± 0.5 | 940.3 ± 0.5 | 941.9 ± 0.5 | 945.1 ± 0.5 | 948.2 ± 0.5 | 951.2 ± 0.5
323.15 K | 926.6 ± 0.5 | 927.2 ± 0.5 | 928.3 ± 0.5 | 930.1 ± 0.5 | 931.8 ± 0.5 | 933.5 ± 0.5 | 936.9 ± 0.5 | 940.1 ± 0.5 | 943.2 ± 0.5
333.15 K | 917.8 ± 0.5 | 918.5 ± 0.5 | 919.7 ± 0.5 | 921.6 ± 0.5 | 923.4 ± 0.5 | 925.2 ± 0.5 | 928.7 ± 0.5 | 932 ± 0.5 | 935.2 ± 0.5
343.15 K | 909.7 ± 0.5 | 910.4 ± 0.5 | 911.6 ± 0.5 | 913.6 ± 0.5 | 915.5 ± 0.5 | 917.4 ± 0.5 | 921.1 ± 0.5 | 924.6 ± 0.5 | 928 ± 0.5
353.15 K | 900.9 ± 0.5 | 901.7 ± 0.5 | 903 ± 0.5 | 905 ± 0.5 | 907.1 ± 0.5 | 909.1 ± 0.5 | 912.9 ± 0.5 | 916.6 ± 0.5 | 920.1 ± 0.5
